The subject of series [1] is COS-7 monkey kidney fibroblast. In words: Sulforhodamine B assay, COS7 healthy cells. In kind it is cell-based. The note with it: 10 µM, vehicle DMSO, 48 h.
A further series addresses T1, yeast α-glucosidase (Saccharomyces cerevisiae, UniProt P53341).
T1 construct: purchased Sigma Aldrich G5003-100UN
As to the kind of experiment: Inhibition of yeast α-glucosidase (p-nitrophenyl-α-D-glucopyranoside substrate, OD 405 nm). The class given is biochemical. The note with it: for D.O. 405 nm / Inhibition (%): mean ± SEM; for IC50: mean ± standard error of the mean, n = 3-5, read-out: Yeast α-glucosidase inhibition, half-maximal inhibitory concentration (IC50). The method, then: The inhibition of α-glucosidase was evaluated using a previously adapted method. Briefly, a solution (25 µL) of tested samples in DMSO-H2O 1:1 was added to 150 µL of phosphate buffer (PBS, 67 mM, pH 6.8) and incubated at 37 °C for 10 min with 25 µL of reduced glutatione (3 mM in PBS) and 25 µL of α-glucosidase type I solution (0.2 U/mL in PBS, CAS G5003-100UN) (Sigma Aldrich, Toluca, Estado de México, Mexico). Subsequently, 25 µL of the substrate solution (23.2 mM p-nitrophenyl-α-D-glucopyranoside, CAS N1377-1G, in PBS) (Sigma Aldrich, Toluca, Estado de México, Mexico) was added, and the mixture was incubated at 37 °C for 15 min under shaking. The reaction mixture was stopped by the addition of a […] 1M solution (50 µL), followed by agitation for 5 min. […] The percentage of inhibition was calculated according to the following equation:Inhibition (%) = [(Acontrol − Asample)/Acontrol] × 100 where A is the absorbance at 405 nm of the sample and the control.
Table S5. Inhibition of yeast α-glucosidase. Determination of half-maximal inhibitory concentration […]
Values represent the mean of three to five independent experiments ± standard error of the mean.
Data were examined by analysis of variance (ANOVA) followed by Dunnett's test to determine groups with significant differences. Values of p ≤0.05 (*) and p ≤ 0.01 (**) were considered significant differences from the control.

Series [2] can be described thus: Solubility in polar solvents (observation). The class given is physicochemical.
In another series the test system is SKLU-1 lung cancer cells. In words: Sulforhodamine B antiproliferative assay, SKLU-1. The class given is cell-based. The note with it: SKLU-1, 10 µM, vehicle DMSO, 48 h, NA: no activity. The procedure: (§1) Antiproliferative activity was evaluated by Sulforhodamine B assay against colon cancer (HCT-15), breast cancer (MCF-7), leukaemia ([…]), central nervous system glial (U-251), and prostate cancer (PC-3) cell lines, which the National Cancer Institute supplied. The cell lines were cultured in RPMI-1640 medium supplemented with 10% fetal bovine serum, 2 mM L-glutamine, […] penicillin G, 100 µg/mL streptomycin sulfate, and 0.25 µg/mL amphotericin B Gibco (Thermo Fisher Scientific, Grand Island, NY, USA). They were incubated at 37 °C in an atmosphere of 5% CO2 and 95% humidity. For the assay, cells were suspended in a 0.1% trypsin-EDTA solution (Gibco). Cell viability was counted using a hematocytometer and diluted with medium to achieve the following densities: 5 × 10^4 cells/mL (SKLU-1, K562) and 7.5 × 10^4 cells/mL (U251, PC-3). […]
(§2) After 24 h, the cells were treated with 100 µL of the compounds to be evaluated, previously dissolved in RPMI-1640 medium and 1% DMSO, and then incubated for 48 h at 37 °C in a 5% CO2 atmosphere. […]
(§3) After 48 h, the adherent cells were fixed by adding 50 µL of a cold 50% (m/vol) […] solution and incubated at 4 °C for 60 min. […] The optical density of the treated samples was determined in a Bio Kinetics microplate reader at a wavelength of 515 nm (Synergy HT, BioTek, Winooski, VT, USA). […]

Series [3] relates to PC-3 prostate cancer cells. As to the kind of experiment: Sulforhodamine B antiproliferative assay, PC-3. The note with it: PC-3, 10 µM, vehicle DMSO, 48 h, NA: no activity. The class given is cell-based. The method, then:
as §1, §2, §3

For series [4], the system named is HCT-15 colon cancer cells. In words: Sulforhodamine B antiproliferative assay, HCT-15. The class given is cell-based. The note with it: HCT-15, 10 µM, vehicle DMSO, 48 h, NA: no activity. The procedure: as §1, §2, §3
Series [5] has as its system MCF-7 breast cancer cells. As to the kind of experiment: Sulforhodamine B antiproliferative assay, MCF-7. The class given is cell-based. The note with it: MCF-7, 10 µM, vehicle DMSO, 48 h, NA: no activity. The procedure:
as §1, §2, §3

The target in a further series is α-glucosidase. On the set-up: method as in PMID 16387392, doi:10.1016/j.kjs.2024.100312. The note with it: literature values for comparison; read-out: α-glucosidase inhibitory activity IC50; cited from earlier work.

T1 sequence (P53341 whole entry): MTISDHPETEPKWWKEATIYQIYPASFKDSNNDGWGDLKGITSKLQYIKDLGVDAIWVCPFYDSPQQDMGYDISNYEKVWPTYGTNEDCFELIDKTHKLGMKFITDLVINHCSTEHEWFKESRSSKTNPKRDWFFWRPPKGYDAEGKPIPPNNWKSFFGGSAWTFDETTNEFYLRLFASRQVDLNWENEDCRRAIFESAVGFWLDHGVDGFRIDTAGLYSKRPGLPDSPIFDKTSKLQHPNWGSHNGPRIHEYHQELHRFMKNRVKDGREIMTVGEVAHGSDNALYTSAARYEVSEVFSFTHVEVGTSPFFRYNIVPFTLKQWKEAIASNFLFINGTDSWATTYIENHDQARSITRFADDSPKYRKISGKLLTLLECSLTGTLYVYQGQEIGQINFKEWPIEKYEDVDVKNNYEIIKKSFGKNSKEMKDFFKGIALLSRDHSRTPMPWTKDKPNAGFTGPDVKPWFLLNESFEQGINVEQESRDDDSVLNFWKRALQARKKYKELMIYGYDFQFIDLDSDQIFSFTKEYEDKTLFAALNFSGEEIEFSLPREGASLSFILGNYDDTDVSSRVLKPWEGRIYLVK

For the compound `O=C(/C=C(O)/C=C/C=C/c1ccccc1)/C=C/C=C/c1ccccc1` [Compound 2], the “Cellular growth inhibition (%)” value in series [1] was 7.35%. Also, the inhibition at 10 µM at yeast α-glucosidase was found to be 7.61 ± 2.8%; in the series with SKLU-1 lung cancer cells (Homo sapiens, SK-LU-1, read-out: Cellular growth inhibition (%)), 7.45%; in series [3] (read-out: Cellular growth inhibition (%)), 11.8%; in series [4] (Homo sapiens, read-out: Cellular growth inhibition (%)), 15.9%; in series [5] (Homo sapiens, MCF7, read-out: Cellular growth inhibition (%)) it was 11.5%. This compound returned an inhibition at 17.78 µM against yeast α-glucosidase of 16.9 ± 3.75%. The compound further showed an inhibition at 31.62 µM on yeast α-glucosidase of 31.6 ± 6.86%. For the same compound, at 56.23 µM the inhibition against yeast α-glucosidase was 66.3 ± 10.2%. Also, testing at 100 µM at yeast α-glucosidase gave an inhibition of 86.9 ± 7.53%. The “D.O. 405 nm” value at yeast α-glucosidase (10 µM) worked out at 1.205±0.051; at yeast α-glucosidase (17.78 µM), 1.084±0.067; at yeast α-glucosidase (31.62 µM) it was 0.894±0.105; on yeast α-glucosidase (56.23 µM) it was 0.446±0.147; at yeast α-glucosidase (100 µM), 0.174±0.105. The IC50 at yeast α-glucosidase stood at 45.6 µM. The “Solubility in polar solvents (in words)” value in series [2] is “poor solubility”.
On yeast α-glucosidase, `OC[C@H]1O[C@@H]2O[C@H]3[C@H](O)[C@@H](O)[C@@H](O[C@H]4[C@H](O)[C@@H](O)[C@@H](O[C@H]5[C@H](O)[C@@H](O)[C@@H](O[C@H]6[C@H](O)[C@@H](O)[C@@H](O[C@H]7[C@H](O)[C@@H](O)[C@@H](O[C@H]8[C@H](O)[C@@H](O)[C@@H](O[C@H]1[C@H](O)[C@H]2O)O[C@@H]8CO)O[C@@H]7CO)O[C@@H]6CO)O[C@@H]5CO)O[C@@H]4CO)O[C@@H]3CO` [BCD, β-cyclodextrin] came in with an inhibition at 1 µM of 0.2 ± 3.02%. The compound further displayed an inhibition at 10 µM against yeast α-glucosidase of 1.11 ± 4.12%. On yeast α-glucosidase, this compound gave an inhibition at 100 µM of 2.31 ± 3.94%. The “D.O. 405 nm” value on yeast α-glucosidase (1 µM) turned out to be 1.275±0.028; at yeast α-glucosidase (10 µM), 1.261±0.022; at yeast α-glucosidase (100 µM) it was 1.246±0.019.
For `O=c1c(O)c(-c2ccc(O)c(O)c2)oc2cc(O)cc(O)c12` [Quercetin, quercetin, reference compound], at yeast α-glucosidase, at 5.62 µM the inhibition was 6.31 ± 2.5%, 10 µM produced 16.2 ± 2.95% inhibition, testing at 17.78 µM gave an inhibition of 36.9 ± 1.16% and at 31.62 µM the inhibition was 59.1 ± 0.88%. This compound also had an inhibition at 56.23 µM on yeast α-glucosidase of 72.2 ± 1.55%. Besides, the “D.O. 405 nm” value at yeast α-glucosidase (5.62 µM) came out at 1.276±0.063. Moreover, at yeast α-glucosidase (10 µM), the “D.O. 405 nm” value is listed as 1.142±0.064. For the same compound, on yeast α-glucosidase (17.78 µM), the “D.O. 405 nm” value is recorded as 0.861±0.044. Also, at yeast α-glucosidase (31.62 µM), the “D.O. 405 nm” value worked out at 0.556±0.019. In addition, the “D.O. 405 nm” value on yeast α-glucosidase (56.23 µM) is 0.376±0.016.
For the compound `O=C(C=CC=Cc1ccccc1)C=C([O-])C=CC=Cc1ccccc1.O=C(C=CC=Cc1ccccc1)C=C([O-])C=CC=Cc1ccccc1.[Cu+2]` [Compound 3], the “Cellular growth inhibition (%)” value is listed as 15.49% in series [1]; 0.58% in the series on SKLU-1 lung cancer cells; 1.95% in series [3]; 12.04% in series [4]; 12.35% in series [5]. In addition, the “α-glucosidase inhibitory activity (in words)” value on yeast α-glucosidase is given as “no inhibition activity at high concentrations”. The “D.O. 405 nm” value at yeast α-glucosidase (1 µM) was found to be 1.314±0.041; on yeast α-glucosidase (10 µM) it was 1.226±0.025; on yeast α-glucosidase (100 µM), 1.071±0.044. The “Inhibition (%)” value on yeast α-glucosidase (1 µM) is -2.68±1.55%; at yeast α-glucosidase (10 µM), 4.11±1.43%; at yeast α-glucosidase (100 µM) it was 16.19 ± 3.18%. Further, the IC50 at yeast α-glucosidase was more than 100 µM. The “Solubility in polar solvents (in words)” value in series [2] is “poor solubility”.
For the compound `O=C(/C=C/c1ccc(O)cc1)CC(=O)/C=C/c1ccc(O)cc1` [bisdemetoxicurcumin], at α-glucosidase, the IC50 was 90.6 µM.
In the case of `COc1cc(/C=C/C(O)=C/C(=O)/C=C/c2ccc(O)cc2)ccc1O` [demetoxicurcumin], the IC50 at α-glucosidase is 82.4 µM.

The values above are taken from article PMC12526022, “Synthesis of First Copper Metal Complex of C=C Extended Curcuminoid Analogue: Structure, β-Cyclodextrin Association, and Biological Properties” (Molecules, 2025).
